In patent US20230391776A1, “AMIDE OXAZOLE COMPOUND” (MEDSHINE DISCOVERY INC., priority 2020, published 2023):
pIC50: −log10 of the molar value.

What was measured:
[1] = system: TNF-α production in THP-1 cells; test: TNF-α ELISA in LPS-stimulated THP-1 cells; type: cell-based; settings: Homo sapiens, TNF-α in supernatant, 150 ng/mL LPS, 18 hours
Method: THP-1 human acute single cell leukemia cells were purchased from ATCC (Cat #TIB-202) and cultured at 37° C. in 5% CO2 incubator. The composition of medium was RPMI1640 (Gibco, Cat #22400-105), and the supplementary compositions were 10% FBS (Gibco, Cat #10091148); 1% PenStrep (Gibco, Cat #15140); 0.05 mM β-mercaptoethanol (Sigma, Cat #M6250).
TNF-α Elisa kit was used to detect the content of TNF-α in cell culture supernatant samples. TNF-α was produced by stimulating THP-1 cells with 150 ng/mL LPS (Sigma, Cat #L6529).
THP-1 cells cultured normally at logarithmic growth period were seeded in a 96-well plate (Corning #3599) at a certain concentration (1*10^5/100 μL) and then put into a cell incubator for incubation. After two hours, 16.7 μL of different concentrations of the compound to be tested (8*final concentration) were added and incubated in an incubator. After one hour, 16.7 μL of 1200 ng/mL LPS was added and incubated in an incubator. After 18 hours, the culture supernatant samples were collected by centrifugation, and the content of TNF-α could be detected by TNF-α Elisa kit. Finally, OD signals (OD450-OD570) were read on envision board reader.
The OD450-OD570 signal value was converted into a percentage inhibition rate.
Inhibition rate %=(ZPE−sample)/(ZPE−HPE)*100.
“HPE” referred to the OD450-OD570 signal value of the control well without LPS stimulated cells, and “ZPE” referred to the OD450-OD570 signal value of the control well with LPS stimulated cells. The IC50 value of the compound was calculated by XLFit in the excel add-in.
Y=Bottom+(Top−Bottom)/(1+(IC50/X)^HillSlope). Equation: […]

[2] = system: OCI-LY10 human diffuse large B lymphoma cells; test: OCI-LY10 cell proliferation (Cell Titer Glo); type: cell-based; settings: 72 hours
Method: The tumor cell lines OCI-LY10 and TMD-8 were used to detect the effect of the compound of the disclosure on inhibiting tumor cell proliferation in vitro.
OCI-LY10 human diffuse large B lymphoma cells, from Nanjing Cobioer Biotechnology Co., Ltd
The compound was diluted with DMSO to a final concentration of 10 mM. The compound was freshly prepared and ready for use.
a) Logarithmic growth period cells were collected, counted, resuspended with complete culture medium, the cell concentration was adjusted to an appropriate concentration (determined according to the results of cell density optimization test), inoculated on 96-well plates, and 100 μL of cell suspension was added to each well. Cells were incubated in an incubator with 37° C., 100% relative humidity and 5% CO2 for 24 hours.
b) The compound to be tested was diluted to 50 μM with culture medium and then gradient diluted for 8 times. Cells were added with 25 μL/well. The final concentrations of the compound were from […], 3-fold gradient dilution, with a total of 9 concentration points.
c) Cells were incubated in an incubator with 37° C., 100% relative humidity and 5% CO2 for 72 hours;
d) 60 μL of CTG test reagent was added to the culture medium.
e) Shaked fully and reacted in the dark for 10 min. Luminescence was measured on ENVISION and the inhibition rate was calculated.
Cell growth inhibition rate %=[(RLUv−RLUs)/(RLUv−RLUb)]×100%

OCI-LY3 cell line = test: OCI-LY3 cell proliferation (CTG); type: cell-based; settings: Homo sapiens, 72 hours
Method: The tumor cell line OCI-LY3 was used to detect the effect of the compound of the disclosure on inhibiting tumor cell proliferation in vitro.
The tumor cell line used in this experiment was provided by Nanjing Cobioer Biotechnology Co., Ltd. See Table 6 below for specific information.
The OCI-LY3 cell line was cultured in the corresponding medium at 37° C. and 5% CO2, and the logarithmic growth period cells were used for experimental planking. The cells were collected and centrifuged at 800 rpm for 5 minutes, and the culture medium was re-suspended and spread in a 96-well plate. After being cultured overnight in 37° C., 5% CO2 incubator, drugs with different concentration gradients (10 μL of prepared diluent of test compound was added) were added, and incubated in 37° C., 5% CO2 incubator for 72 hours. The cell culture plate was incubated with CTG reagent at room temperature in the dark for 30 minutes and return to room temperature. CTG solution was added into the biosafety cabinet in the dark 100 μL/well, and was shaken and mixed evenly on plate shaker in the dark for 2 minutes, and incubated at room temperature in the dark for 10 minutes. The luminous value was read and recorded with Perkin Elmer Envision instrument.
The luminous value of the blank control group was subtracted from the luminous value measured at each drug concentration, the ratio of this value to DMSO group was taken as the cell inhibition rate (%). GraphPad software was used, the logarithm of drug concentration (log drug concentration) versus inhibition rate was plotted, and the IC50 value and 95% confidence value were automatically fitted and calculated by log (inhibitor) vs. response-variable slop (four parameters) algorithm of nonlinear regression by software.

Pharmacokinetics of rats = type: in vivo; settings: rat, plasma, SD male rats; for Vd / AUC(0-t) / clearance / half-life: IV 1 mg/kg; for Vd: read-out: Apparent volume of distribution Vdss; for AUC(0-t): read-out: Area under the plasma concentration-time curve AUC0-24h; for clearance: read-out: Clearance rate CL; for half-life: read-out: Half-life T1/2 (converted); for bioavailability / AUC / Cmax / Tmax: PO 3 mg/kg; for AUC: read-out: Area under the plasma concentration-time curve AUC; for Cmax: read-out: Peak concentration Cmax; for Tmax: read-out: Peak time Tmax
Method: The purpose of this experiment was to study the pharmacokinetics of the tested compound in the plasma of SD male rats after intravenous injection and oral administration.
SD male rats from 7 to 10 weeks old were selected, and the dosage of intravenous and oral administration was 1 mg/kg and 3 mg/kg respectively. Rats in the gavage group fasted for at least 12 hours before administration, and feeding was resumed after administration for 4 hours. Intravenous injection group was free to eat and drink during the whole experiment.
Drug preparation operation: in the intravenous injection group, the compound was weighed and dissolved with 5% DMSO/10% Solutol/85% H2O, and a clear solution of 0.5 mg/mL was prepared by vortex, which was filtered by a 0.22 m microporous membrane for later use. In the gavage group, the compound was dissolved in 5% DMSO/10% Solutol/85% H2O, and a uniform suspension was prepared by vortex. On the day of the experiment, the animals in the intravenous group were given the corresponding compound by a single injection through the tail vein, and the dosage volume was 2 mL/kg. In the oral group, the corresponding compounds were given by single gavage, and the dosage volume was 5 mL/kg. The animals before administration were weighed, and the administration volume was calculated according to the weight. The sampling time was 0.083 (injection group), 0.25, 0.5, 1, 2, 4, 6, 8, 10 (gavage group), 24 hours. Approximately 250 μL of whole blood was collected through the jugular vein at each time point for plasma preparation for concentration determination by high performance liquid chromatography-tandem mass spectrometry (LC-MS/MS). All animals were euthanized by CO2 anesthesia after collecting PK samples at the last time point. The non-atrioventricular model of WinnonLin™ Version 6.3 (Pharsight, Mountain View, CA) pharmacokinetic software was used to process the plasma concentration, and the pharmacokinetic parameters were calculated by linear logarithmic trapezoid method.

| Compound | pIC50 [1] | pIC50 [2] | pIC50 (OCI-LY3 cell line) | Vd (Pharmacokinetics of rats) | AUC(0-t) (Pharmacokinetics of rats) | clearance (Pharmacokinetics of rats) | half-life (Pharmacokinetics of rats) | bioavailability (Pharmacokinetics of rats) | AUC (Pharmacokinetics of rats) | Cmax (Pharmacokinetics of rats) | Tmax (Pharmacokinetics of rats) |
| --- | --- | --- | --- | --- | --- | --- | --- | --- | --- | --- | --- |
| Cc1cc(-c2nc(C(=O)Nc3cn4cc(C(C)(C)O)nc4cc3-c3ccccc3)co2)ccn1 [WX009] | 7.22 | 7.32 | 6.92 | 0.2 L/kg | 35.5 µM·h | 1.1 mL/min/kg | 2.5 h | 55% | 59.1 µM·h | 10.1 µM | 1.3 h |
| CC(C)(O)c1cn2cc(NC(=O)c3coc(-c4ccnc(N)c4)n3)c(-c3ccccc3)cc2n1 [WX017] | 7.80 | 8.15 | 7.74 | 0.8 L/kg | 5.51 µM·h | 7 mL/min/kg | 4.1 h | 29% | 4.77 µM·h | 1.02 µM | 0.8 h |
| CC(C)(O)c1cn2cc(NC(=O)c3coc(-c4ccnc(N)c4F)n3)c(-c3ccccc3)cc2n1 [WX027] | 7.38 | 7.59 | 7.32 | 0.3 L/kg | 8.84 µM·h | 4 mL/min/kg | 1.4 h | 38% | 10.2 µM·h | 4.33 µM | 0.3 h |
